Test results reported in US4351763A, “Pharmacologically active peptides” (Eli Lilly and Company, priority 1981, dated 1982).
Where a SMILES comes first, the peptide text is derived from it. [ ]: non-standard residue; d: D form. Phe(4-F) = N[C@@H](Cc1ccc(F)cc1)C(=O)O; NMeM = CN[C@@H](CCSC)C(=O)O

These molecules were tested on mouse (assay: mouse hot plate test (analgesic activity)). Conditions: hot plate 52° C., 15 minutes after administration, latency until jump.
Assay type: in vivo
Protocol: In this test, a mouse is placed inside an upright acrylic cylinder comprising, as its base, a hot plate surface which is maintained at 52° C. The mouse is given, orally or by subcutaneous injection, a predetermined amount of test compound dissolved or suspended in a suitable carrier, and, 15 minutes after administration of the test compound, the mouse is placed on the hot plate surface. The latency in seconds until the mouse jumps from the hot plate surface is measured. […] This must occur in a dose range which produces no motor incoordination or incapacitation. The following Table records the ED50 results obtained from this test.

Structure (SMILES) | Analgesic Activity, Hot Plate Test ED50, mg./kg., subcutaneous [mg/kg]
CSCC[C@@H](C(N)=O)N(C)C(=O)[C@H](Cc1ccc(F)cc1)NC(=O)CNC(=O)[C@@H](C)NC(=O)[C@@H](N)Cc1ccc(O)cc1 [Example 1, L-Tyrosyl-D-alanylglycyl-L-p-fluorophenylalanyl-L-(N^α -methyl)methioninamide] | 0.023
COc1ccc([C@H](NC(=O)[C@H](Cc2ccc(F)cc2)NC(=O)CNC(=O)[C@@H](C)NC(=O)[C@@H](N)Cc2ccc(O)cc2)C(N)=O)cc1 [Example 2, L-Tyrosyl-D-alanylglycyl-L-p-fluorophenylalanyl-L-p-methoxyphenylglycinamide] | 1.04
C[C@@H](NC(=O)[C@@H](N)Cc1ccc(O)cc1)C(=O)NCC(=O)N[C@@H](Cc1ccc(F)cc1)C(=O)N[C@@H](C(N)=O)c1ccccc1 [Example 3 D-Pgl, L-Tyrosyl-D-alanyl-glycyl-L-p-fluorophenylalanyl-D-phenylglycinamide] | 0.103
C[C@@H](NC(=O)[C@@H](N)Cc1ccc(O)cc1)C(=O)NCC(=O)N[C@@H](Cc1ccc(F)cc1)C(=O)N[C@H](C(N)=O)c1ccccc1 [Example 3 L-Pgl, L-Tyrosyl-D-alanyl-glycyl-L-p-fluorophenylalanyl-L-phenylglycinamide] | 0.063
CSCC[C@@H](C(N)=O)N(C)C(=O)[C@H](Cc1ccc(F)cc1)NC(=O)CNC(=O)[C@H](NC(=O)[C@@H](N)Cc1ccc(O)cc1)[C@H](C)O [Example 4, L-Tyrosyl-D-threonylglycyl-L-p-fluorophenylalanyl-L-(N^α -methyl)methioninamide] (H-Y[dT]G[Phe(4-F)][NMeM]-NH2) | 0.088
